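Assay format: 96-well plates, 48-hour exposure. At the TGI there is no net growth.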
Tests used:
Assay in all cases: inhibition of tumour cell growth, NCI panel, 48 h
786-0 renal = system: 786-0 renal
A498 renal = system: A498 renal
A549 NSCLC = system: A549 NSCLC
ACHN renal = system: ACHN renal
BT-549 breast = system: BT-549 breast
CAKI-1 renal = system: CAKI-1 renal
CCRF-CEM leukemia = system: CCRF-CEM leukemia
COLO 205 colon = system: COLO 205 colon
DU-145 prostate = system: DU-145 prostate
EKVX NSCLC = system: EKVX NSCLC
HCC-2998 colon = system: HCC-2998 colon
HCT-116 colon = system: HCT-116 colon
HCT-15 colon = system: HCT-15 colon
HL-60(TB) leukemia = system: HL-60(TB) leukemia
HOP-62 NSCLC = system: HOP-62 NSCLC
HOP-92 NSCLC = system: HOP-92 NSCLC
HS 578T breast = system: HS 578T breast
HT29 colon = system: HT29 colon
IGROV1 ovarian = system: IGROV1 ovarian
K-562 leukemia = system: K-562 leukemia
KM12 colon = system: KM12 colon
LOX IMVI melanoma = system: LOX IMVI melanoma
M14 melanoma = system: M14 melanoma
MALME-3M melanoma = system: MALME-3M melanoma
MCF7 breast = system: MCF7 breast
MDA-MB-231 breast = system: MDA-MB-231 breast
MDA-MB-435 = system: MDA-MB-435
MDA-N = system: MDA-N
MOLT-4 leukemia = system: MOLT-4 leukemia
NCI-H226 lung = system: NCI-H226 lung
NCI-H23 lung = system: NCI-H23 lung
NCI-H460 lung = system: NCI-H460 lung
NCI-H522 lung = system: NCI-H522 lung
NCI/ADR-RES ovarian = system: NCI/ADR-RES ovarian
OVCAR-3 ovarian = system: OVCAR-3 ovarian
OVCAR-4 ovarian = system: OVCAR-4 ovarian
OVCAR-5 ovarian = system: OVCAR-5 ovarian
OVCAR-8 ovarian = system: OVCAR-8 ovarian
PC-3 prostate = system: PC-3 prostate
RPMI-8226 leukemia = system: RPMI-8226 leukemia
RXF 393 renal = system: RXF 393 renal
SF-268 CNS = system: SF-268 CNS
SF-295 CNS = system: SF-295 CNS
SF-539 CNS = system: SF-539 CNS
SK-MEL-2 melanoma = system: SK-MEL-2 melanoma
SK-MEL-28 melanoma = system: SK-MEL-28 melanoma
SK-MEL-5 melanoma = system: SK-MEL-5 melanoma
SK-OV-3 ovarian = system: SK-OV-3 ovarian
SN12C renal = system: SN12C renal
SNB-19 CNS = system: SNB-19 CNS
SNB-75 CNS = system: SNB-75 CNS
SR leukemia = system: SR leukemia
SW-620 colon = system: SW-620 colon
T-47D breast = system: T-47D breast
TK-10 renal = system: TK-10 renal
U251 CNS = system: U251 CNS
UACC-257 melanoma = system: UACC-257 melanoma
UACC-62 melanoma = system: UACC-62 melanoma
UO-31 renal = system: UO-31 renal

OC(C1=C/C(=C\c2ccncc2)c2ccccc21)c1ccncc1 (stereo not drawn)
TGI (786-0 renal): 30.3 µM
TGI (A498 renal): 27.3 µM
TGI (A549 NSCLC): 41.8 µM
TGI (ACHN renal): 53.4 µM
TGI (BT-549 breast): 57.9 µM
TGI (CAKI-1 renal): > 49.5 µM
TGI (CCRF-CEM leukemia): 45.9 µM
TGI (COLO 205 colon): 29.3 µM
TGI (DU-145 prostate): 62.2 µM
TGI (EKVX NSCLC): 41.5 µM
TGI (HCC-2998 colon): 22.3 µM
TGI (HCT-116 colon): 28.2 µM
TGI (HCT-15 colon): > 63.5 µM
TGI (HL-60(TB) leukemia): 15.7 µM
TGI (HOP-62 NSCLC): 31.6 µM
TGI (HOP-92 NSCLC): 49.7 µM
TGI (HS 578T breast): > 54.1 µM
TGI (HT29 colon): 32.4 µM
TGI (IGROV1 ovarian): 52.4 µM
TGI (K-562 leukemia): 28.1 µM
TGI (KM12 colon): 35.1 µM
TGI (LOX IMVI melanoma): 32 µM
TGI (M14 melanoma): 27.8 µM
TGI (MALME-3M melanoma): 38.3 µM
TGI (MCF7 breast): 30.7 µM
TGI (MDA-MB-231 breast): 23.4 µM
TGI (MDA-MB-435): 27.9 µM
TGI (MDA-N): 30.4 µM
TGI (MOLT-4 leukemia): 23.9 µM
TGI (NCI-H226 lung): 31.1 µM
TGI (NCI-H23 lung): 39.2 µM
TGI (NCI-H460 lung): 28.2 µM
TGI (NCI-H522 lung): 31.1 µM
TGI (NCI/ADR-RES ovarian): > 75 µM
TGI (OVCAR-3 ovarian): 31.7 µM
TGI (OVCAR-4 ovarian): > 57.6 µM
TGI (OVCAR-5 ovarian): 37.4 µM
TGI (OVCAR-8 ovarian): > 100 µM
TGI (PC-3 prostate): 32.9 µM
TGI (RPMI-8226 leukemia): 22.4 µM
TGI (RXF 393 renal): 30.6 µM
TGI (SF-268 CNS): 57.3 µM
TGI (SF-295 CNS): 31.4 µM
TGI (SF-539 CNS): 32 µM
TGI (SK-MEL-2 melanoma): 33.8 µM
TGI (SK-MEL-28 melanoma): 34.6 µM
TGI (SK-MEL-5 melanoma): 13 µM
TGI (SK-OV-3 ovarian): 31.8 µM
TGI (SN12C renal): 35.4 µM
TGI (SNB-19 CNS): 69.2 µM
TGI (SNB-75 CNS): 24 µM
TGI (SR leukemia): 29.1 µM
TGI (SW-620 colon): > 94.3 µM
TGI (T-47D breast): 33.7 µM
TGI (TK-10 renal): 32.3 µM
TGI (U251 CNS): 31.4 µM
TGI (UACC-257 melanoma): 19.1 µM
TGI (UACC-62 melanoma): 24 µM
TGI (UO-31 renal): 28.2 µM

CC(=O)[C@H]1CC[C@H]2[C@@H]3CCC4=CC(=O)CC[C@]4(C)[C@H]3CC[C@]12C
TGI (786-0 renal): 54.2 µM
TGI (A498 renal): 67.1 µM
TGI (A549 NSCLC): 88.5 µM
TGI (ACHN renal): 75.2 µM
TGI (BT-549 breast): 32.1 µM
TGI (CAKI-1 renal): > 100 µM
TGI (CCRF-CEM leukemia): 48 µM
TGI (COLO 205 colon): 29.5 µM
TGI (DU-145 prostate): 94.3 µM
TGI (EKVX NSCLC): 9.66 µM
TGI (HCC-2998 colon): 31.4 µM
TGI (HCT-116 colon): 28.5 µM
TGI (HCT-15 colon): 69.3 µM
TGI (HL-60(TB) leukemia): 87.1 µM
TGI (HOP-62 NSCLC): 45.4 µM
TGI (HOP-92 NSCLC): 71.3 µM
TGI (HS 578T breast): 19.7 µM
TGI (HT29 colon): 29.7 µM
TGI (IGROV1 ovarian): 71.4 µM
TGI (K-562 leukemia): 43.2 µM
TGI (KM12 colon): 31.5 µM
TGI (LOX IMVI melanoma): 33.3 µM
TGI (M14 melanoma): 32.4 µM
TGI (MALME-3M melanoma): 35.8 µM
TGI (MCF7 breast): 50.4 µM
TGI (MDA-MB-231 breast): 33.2 µM
TGI (MDA-MB-435): 39.3 µM
TGI (MDA-N): 35.9 µM
TGI (MOLT-4 leukemia): 35.2 µM
TGI (NCI-H226 lung): 45 µM
TGI (NCI-H23 lung): 35.7 µM
TGI (NCI-H460 lung): 42.4 µM
TGI (NCI-H522 lung): 31 µM
TGI (NCI/ADR-RES ovarian): 31.3 µM
TGI (OVCAR-3 ovarian): 35 µM
TGI (OVCAR-4 ovarian): 79.3 µM
TGI (OVCAR-5 ovarian): 50.9 µM
TGI (OVCAR-8 ovarian): 47.3 µM
TGI (PC-3 prostate): 39.3 µM
TGI (RPMI-8226 leukemia): 26.3 µM
TGI (RXF 393 renal): 57.9 µM
TGI (SF-268 CNS): 69.8 µM
TGI (SF-295 CNS): 76 µM
TGI (SF-539 CNS): 34.1 µM
TGI (SK-MEL-2 melanoma): 44.3 µM
TGI (SK-MEL-28 melanoma): 37.7 µM
TGI (SK-MEL-5 melanoma): 24.8 µM
TGI (SK-OV-3 ovarian): 62.9 µM
TGI (SN12C renal): 41.1 µM
TGI (SNB-19 CNS): > 100 µM
TGI (SNB-75 CNS): 65.6 µM
TGI (SR leukemia): > 100 µM
TGI (SW-620 colon): > 100 µM
TGI (T-47D breast): 57.8 µM
TGI (TK-10 renal): 52.2 µM
TGI (U251 CNS): 34.1 µM
TGI (UACC-257 melanoma): 27.2 µM
TGI (UACC-62 melanoma): 30.1 µM
TGI (UO-31 renal): 26.4 µM

From PubChem BioAssay (NCI)
